The subject of assay [1] is HIV-1 RT mutant resistance test vector 41 + 69 + 184 + 215. In words: Phenotypic susceptibility assay, site directed RTV 41 + 69 + 184 + 215. In kind it is cell-based. The following applies: RTV with 41 + 69 + 184 + 215; 2 replicates. On the procedure:
(§1) Resistance tests were carried out with resistance test vectors using two host cell types. Resistance test vector viral particles were produced by a first host cell (the resistance test vector host cell) that was prepared by transfecting a packaging host cell with the resistance test vector and the packaging expression vector. The resistance test vector viral particles were then used to infect a second host cell (the target host cell) in which the expression of the indicator gene is measured.
(§2) The resistance test vectors containing a functional luciferase gene cassette were constructed and host cells were transfected with the resistance test vector DNA. The resistant test vectors contained patient-derived reverse transcriptase and protease sequences that were either susceptible or resistant to the antiretroviral agents, such as nucleoside reverse transcriptase inhibitors, non-nucleoside reverse transcriptase inhibitors and protease inhibitors. The resistance test vector viral particles produced by transfecting the resistance test vector DNA into host cells, either in the presence or absence of protease inhibitors, were used to infect target host cells grown either in the absence of NRTI or NNRTI or In the presence of increasing concentrations of the drug. The amount of luciferase activIty produced in infected target host cells in the presence of drug was compared to the amount of luciferase produced in infected target host cells in the absence of drug. Drug resistance was measured as the amount of drug required to inhibit by 50% the luciferase activity detected in the absence of drug (Inhibitory concentration 50%, IC50). The IC50 values were determined by plotting percent drug inhibition vs. log 10 drug concentration.
Host cells were seeded in 10-cm-diameter dishes and were transfected several days after plating with resistance test vector plasmid DNA and the envelope expression vector. Transfections were performed using a calcium-phosphate precipitation procedure. The cell culture media containing the DNA precipitate was replaced with fresh medium, from one to 24 hours, after transfection. Cell culture media containing resistance test vector viral particles was harvested one to four days after transfection and was passed through a […] filter before being stored at −80° C. HIV capsid protein (p24) levels in the harvested cell culture media were determined by an EIA method as described by the manufacturer (SIAC; Frederick, Md.). Before infection, target cells (293 and 293/T) were plated in cell culture media. Control infections were performed using cell culture media from mock transfections (no DNA) or transfections containing the resistance test vector plasmid DNA without the envelope expression plasmid. One to three or more days after infectIon the media was removed and cell lysis buffer (Promega) was added to each well. Cell lysates were assayed for luciferase activity (FIG. 3). The inhibitory effect of the drug was determined using the following equation:
% luciferase inhibition=1−(RLUluc[drug]÷RLUluc)×100
where RLUluc [drug] is the relative light unit of luciferase activity in infected cells in the presence of drug and RLUluc is the Relative Light Unit of luciferase activity in infected cells in the absence of drug. IC50 values were obtained from the sigmoidal curves that were generated from the data by plotting the percent inhibition of luciferase activity vs. the log 10 drug concentration. The drug inhibition curves are shown in (FIG. 3).
Genotypic changes that are observed to correlate with changes in phenotypic patterns of drug susceptibility are evaluated by construction of resistance test vectors containing the specific mutation on a defined, wild-type (drug susceptible) genetic background. Mutations may be incorporated alone and/or in combination with other known drug resistance mutations that are thought to modulate the susceptibility of HIV to a certain drug or class of drugs. […]

Assay [2] has as its system patient RTV-621, RTV-285, RTV-690, RTV-770 and RTV-771 (T69SSA, T69SSG, T69SSS). Nature of the assay: Phenotypic susceptibility assay, patient isolates with T69SSX mutations/insertions. The following applies: for susceptibility compared to wild-type control RTV: patient samples with insertions at 69. In kind it is cell-based, HIV-1. Here is the method: In these experiments patient-derived segment(s) corresponding to the HIV protease and reverse transcriptase coding regions were either patient-derived segments amplified by the reverse transcription-polymerase chain reaction method (RT-PCR) using viral RNA isolated from viral particles present in the serum of HIV-infected individuals or were mutants of wild type HIV-1 made by site directed mutagenesis of a parental clone of resistance test vector DNA. Isolation of viral RNA was performed using standard procedures (e.g. RNAgents Total RNA Isolation System, Promega, Madison Wis. or RNAzol, Tel-Test, Friendswood, Tex.). The RT-PCR protocol was divided into two steps. A retroviral reverse transcriptase [e.g. Moloney MuLV reverse transcriptase (Roche Molecular Systems, Inc., Branchburg, N.J.), or avian myeloblastosis virus (AMV) reverse transcriptase, (Boehringer Mannheim, Indianapolis, Ind.)] was used to copy viral RNA into cDNA. The cDNA was then amplified using a thermostable DNA polymerase [e.g. Taq (Roche Molecular Systems, Inc., Branchburg, N.J.), Tth (Roche Molecular Systems, Inc., Branchburg, N.J.), PrimeZyme (isolated from Thermus brockianus, Biometra, Gottingen, Germany)] or a combination of thermostable polymerases as described for the performance of “long PCR” (Barnes, W. M., (1994) Proc. Natl. Acad. Sci, USA 91, 2216-2220) [e.g. Expand High Fidelity PCR System (Taq+Pwo), (Boehringer Mannheim. Indianapolis, Ind.) OR GeneAmp XL PCR kit (Tth+Vent), (Roche Molecular Systems, Inc., Branchburg, N.J.)].
Resistance test vectors incorporating the “test” patient-derived segments were constructed as described in PCT International Application No. PCT/US97/01609, filed Jan. 29, 1997 using an amplified DNA product of 1.5 kB prepared by RT-PCR using viral RNA as a template and oligonucleotides PDSApa (1) and PDSAge (2) as primers, followed by digestion with ApaI and AgeI or the isoschizimer PINAI. To ensure that the plasmid DNA corresponding to the resultant resistance test vector comprises a representative sample of the HIV viral quasi-species present in the serum of a given patient, many (>100) independent E. coli transformants obtained in the construction of a given resistance test vector were pooled and used for the preparation of plasmid DNA.
as §1
as §2, with “The IC50 values were determined by plotting percent drug inhibition vs. log 10 drug concentration.” left out

Assay [3] relates to HIV with RT Met184→Val mutation. The following applies: Met184→Val (M184V); cited from earlier work.
For assay [4], the system named is ZDV-resistant HIV isolates. The conditions noted are these: cited from earlier work.

Molecules are shown by their SMILES. Entries after “also recorded” stand apart in the source; their conditions may differ.

Consider `Nc1nc(NC2CC2)c2ncn([C@H]3C=C[C@@H](CO)C3)c2n1` [ABC, abacavir], for which the “Average fold reduction in susceptibility” value in assay [1] turned out to be 11.56 fold. Further, in assay [2], the “susceptibility compared to wild-type control RTV” value is “decreased susceptibility”. The “fold increase in IC50 / reduction in susceptibility” value (“fold increase in IC50 / reduction” below) in assay [3] was 2-5 fold.

With `Cc1cn([C@H]2C[C@H](N=[N+]=[N-])[C@@H](CO)O2)c(=O)[nH]c1=O` [AZT, zidovudine], the “Average fold reduction in susceptibility” value in assay [1] is on record as 5.87 fold. In assay [2], the “susceptibility compared to wild-type control RTV” value was “decreased susceptibility”.

In the case of `Cc1cn([C@H]2C=C[C@@H](CO)O2)c(=O)[nH]c1=O` [d4T, stavudine], the “Average fold reduction in susceptibility” value in assay [1] turned out to be 2.32 fold. In addition, the fold reduced susceptibility in assay [2] (four patient viruses with T69SSX mutations/insertions (FIG. 5)) was 2-10 fold. For the same compound, the “susceptibility compared to wild-type control RTV” value in assay [2] was “decrease in susceptibility to d4T; also recorded: significant reduction in d4T susceptibility; also recorded: decreased susceptibility”. The “cross-resistance of ZDV-resistant strains” value (“cross-resistance” for short) in assay [4] is given as “Cross-resistance”.

For `Nc1ccn([C@H]2CC[C@@H](CO)O2)c(=O)n1` [ddC, zalcitabine], the “Average fold reduction in susceptibility” value in assay [1] came out at 3.48 fold. The “susceptibility compared to wild-type control RTV” value in assay [2] is given as “decreased susceptibility”. The “cross-resistance” value in assay [4] is listed as “no evidence that mutations selected for during ZDV monotherapy influence sensitivity”. Moreover, the “fold increase in IC50 / reduction” value in assay [3] was “four-fold to eight-fold”.

Regarding `O=c1[nH]cnc2c1ncn2[C@H]1CC[C@@H](CO)O1` [ddI, didanosine], the “Average fold reduction in susceptibility” value in assay [1] is recorded as 2.28 fold. Besides, the “susceptibility compared to wild-type control RTV” value in assay [2] is reported as “decreased susceptibility”. Further, the “cross-resistance” value in assay [4] was “no evidence that mutations selected for during ZDV monotherapy influence sensitivity”. Also, the “fold increase in IC50 / reduction” value in assay [3] is given as “four-fold to eight-fold”.

The record behind these values is patent US6489098B1, “Means and methods for monitoring nucleoside reverse transcriptase inhibitor antiretroviral therapy and guiding therapeutic decisions in the treatment of HIV/AIDS” (ViroLogic, Inc., priority 1998, dated 2002).
